Results on 25 molecules are retold here after patent US10294269B2, “Dipeptidyl ketoamide compounds and their use for the treatment and/or prevention of fat accumulation” (LANDSTEINER GENMED, S.L., priority 2014, dated 2019).

What is called inhibition is the share of the control response that was lost under treatment.

For one assay, the system named is 3T3-L1 pre-adipocyte cell line. Description: Mouse 3T3-L1 pre-adipocyte cells differentiation assay (Nile Red lipid fluorescence). The format is cell-based. The settings on record: % of adipogenesis inhibition; compound at 25 μM in differentiation medium (2 days) and insulin medium (2 days); 3T3-L1 cells. As to the method:
Mouse 3T3-L1 Pre-Adipocyte Cells Differentiation Assay
Cell Culture and Treatment
Mouse (Mus musculus) 3T3-L1 pre-adipocyte cell line was purchased at ATCC.
Induction of adipocyte differentiation was performed according to Choi K C et al “The role of ghrelin and growth hormone secretagogues receptor on rat adipogenesis” Endocrinol 144: 754-759, 2003 with some modifications.
Briefly, 3T3-L1 pre-adipocytes were seeded in 24 well culture plates at a density of 3×10^4 cells/well in growth medium (DMEM containing 4.5 g/L glucose, 1 mM sodium pyruvate, 2 mM L-glutamine, 100 μg/mL streptomycin/penicilline, 25 mM HEPES and 10% calf serum (heat inactivated)). The resulting solution is used as a blank in the measure of fluorescence described below.
Cells were incubated at 37° C., 95% humidity and 10% CO2. Two days after reaching confluence (ninth day) growth medium was changed to differentiation medium (DMEM containing 4.5 g/L glucose, 2 mM L-glutamine, 100 μg/mL streptomycin/penicilline, 25 mM HEPES, 10% FBS (heat inactivated), 1 mM sodium pyruvate, 0.5 mM 3-isobutyl-1-methylxanthine, 0.25 μM dexamethasone, and 5 μg/mL insulin). After 48 h, the medium was replaced by insulin medium (DMEM containing 4.5 g/L glucose, 1 mM sodium pyruvate, 2 mM L-glutamine, 100 μg/mL streptomycin/penicillin, 25 mM HEPES, 10% FBS (inactivated) and 5 μg/mL insulin) for another 48 hours, and then incubated in 10% FBS/DMEM (same as insulin medium without insulin) for 4 days up to their complete differentiation.
The compounds to be tested were added at the 25 μM concentration to the differentiation medium (2 days) and to the insulin medium (2 days).
After incubation, the intracellular stored lipids were quantified by measuring the fluorescence after staining the lipids with the fluorescent dye Nile Red (9-diethylamino-5-benzo[α]phenoxazinone).
To carry out said lipid measurement, cells were lysed in hypotonic buffer (1 mM Tris-HCl pH=7.5) containing 2 μg/ml of Nile Red (9-diethylamino-5-benzo[t]phenoxazinone) for 15 min at 37° C.
Lysed cells were homogenized and TAG content was determined by monitoring Nile Red fluorescence in a laser spectral fluorometer. Excitation 522 nm; Emission 574 nm.
For each compound to be tested the following fluorescence measures were recorded: • FC: Fluorescence of a sample of lysed cells incubated in the presence of the compound in both the differentiation medium and in the insulin medium. • FB: Fluorescence of a blank sample of sample of pre-adipocytes in growth medium. • FNC: Fluorescence of a sample of lysed cells incubated with the differentiation medium and insulin medium not comprising any additional compound.
The inhibition of adipogenesis in the presence of the tested compounds is calculated from the following equation: % of adipogenesis inhibition=100−[100×((FC−FB)/(FNC−FB))]
% of adipogenesis inhibition (reflecting the activity against 3T3-L1 cell differentiation into adipocytes) was determined for each compound, and the effect at the […] has been chosen as the most representative value as to be shown in the structure-activity table.
Consider “N-[(1S)-1-(1-benzyl-2-tert-butylcarbamoyl-2-oxo-ethylcarbamoyl)-3-methyl-butyl]-benzamide [Example 52]”, for which the Adipogenesis inhibition score entry was “++ (Inhibition between >15% and 30%)”.

Staying with this assay, now noted: Mus musculus, 48 h; % of adipogenesis inhibition; compound at 25 μM in differentiation medium (2 days) and insulin medium (2 days); 3T3-L1 cells; read-out: Adipogenesis inhibition score.
For `CC(C)C[C@H](NC(=O)C1CCOCC1)C(=O)NC(Cc1ccccc1)C(=O)C(=O)NC(C)(C)C` (stereo partly drawn) [Example 57, Tetrahydro-pyran-4-carboxylic acid [(1S)-1-(1-benzyl-2-tert-butylcarbamoyl-2-oxo-ethylcarbamoyl)-3-methyl-butyl]-amide], the inhibition at 25 µM was 15 to 30%.

`CC(C)C[C@H](NC(=O)c1cccnn1)C(=O)NC(Cc1ccccc1)C(=O)C(=O)NC(C)(C)C` (stereo partly drawn) [Example 55, Pyridazine-3-carboxylic acid [(1S)-1-(1-benzyl-2-tert-butylcarbamoyl-2-oxo-ethylcarbamoyl)-3-methyl-butyl]-amide]: the inhibition at 25 µM lay within 15 to 30%. The same measure, in the same setting: the figure for `COCCOC(=O)N[C@@H](CC(C)C)C(=O)NC(Cc1ccccc1)C(=O)C(=O)NOC` (stereo partly drawn) [Example 67, [(1S)-1-(1-benzyl-2-methoxycarbamoyl-2-oxo-ethylcarbamoyl)-3-methyl-butyl]-carbamic acid 2-methoxy-ethyl ester] is 15 to 30%. Same read-out and setting: to `CC(C)C[C@H](NC(=O)c1cnc2ccccc2c1)C(=O)NC(Cc1ccccc1)C(=O)C(=O)NC(C)(C)C` (stereo partly drawn) [Example 54, Quinoline-3-carboxylic acid [(1S)-1-(1-benzyl-2-tert-butylcarbamoyl-2-oxo-ethylcarbamoyl)-3-methyl-butyl]-amide] belongs 30 to 80%; to `CCNC(=O)C(=O)C(Cc1ccccc1)NC(=O)[C@H](CC(C)C)NC(=O)c1ccccn1` (stereo partly drawn) [Example 4, N-((2S)-1-((4-(ethylamino)-3,4-dioxo-1-phenylbutan-2-yl)amino)-4-methyl-1-oxopentan-2-yl)picolinamide], 1 to 15%; to `CC(C)C[C@H](NC(=O)c1cccnc1)C(=O)NC(Cc1ccccc1)C(=O)C(=O)NC(C)(C)C` (stereo partly drawn) [Example 21, N-((2S)-1-((4-(tert-butylamino)-3,4-dioxo-1-phenylbutan-2-yl)amino)-4-methyl-1-oxopentan-2-yl)nicotinamide], 1 to 15%. As to `CCNC(=O)C(=O)C(Cc1ccccc1)NC(=O)[C@H](CC(C)C)NC(=O)OC(C)(C)C` (stereo partly drawn) [Example 64, tert-butyl (2S)-1-(4-(ethylamino)-3,4-dioxo-1-phenylbutan-2-ylamino)-4-methyl-1-oxopentan-2-ylcarbamate], the inhibition at 25 µM was in the range of 30 to 80%. On the same count and under the same terms, the figure for `CC(C)C[C@H](NC(=O)c1cnccn1)C(=O)NC(Cc1ccccc1)C(=O)C(=O)NC(C)(C)C` (stereo partly drawn) [Example 15, N-((2S)-1-((4-(tert-butylamino)-3,4-dioxo-1-phenylbutan-2-yl)amino)-4-methyl-1-oxopentan-2-yl)pyrazine-2-carboxamide] is 1 to 15%; for `CONC(=O)C(=O)C(Cc1ccccc1)NC(=O)[C@H](CC(C)C)NC(=O)c1cccc(OC)c1` (stereo partly drawn) [Example 61, N-[(1S)-1-(1-benzyl-2-methoxycarbamoyl-2-oxo-ethylcarbamoyl)-3-methyl-butyl]-3-methoxy-benzamide] it is 30 to 80%. `CC(C)C[C@H](NC(=O)c1ccccc1)C(=O)NC(Cc1ccccc1)C(=O)C(=O)NC1CCCCC1` (stereo partly drawn) [Example 58, N-[(1S)-1-(1-benzyl-2-cyclohexylcarbamoyl-2-oxo-ethylcarbamoyl)-3-methyl-butyl]-benzamide]: the inhibition at 25 µM was in the range of 30 to 80%. Same read-out and setting: the figure for `CC(C)C[C@H](NC(=O)c1ccccc1)C(=O)NC(Cc1ccccc1)C(=O)C(=O)NC(C)(C)C` (stereo partly drawn) [Example 18, N-((2S)-1-((4-(tert-butylamino)-3,4-dioxo-1-phenylbutan-2-yl)amino)-4-methyl-1-oxopentan-2-yl)benzamide] is 15 to 30%; for `CCNC(=O)C(=O)C(Cc1ccccc1)NC(=O)[C@H](CC(C)C)NC(=O)c1ccccc1` (stereo partly drawn) [Example 1, N-((2S)-1-((4-(ethylamino)-3,4-dioxo-1-phenylbutan-2-yl)amino)-4-methyl-1-oxopentan-2-yl)benzamide] it is 15 to 30%. The same measure, in the same setting: the figure for `CCNC(=O)C(=O)C(Cc1ccccc1)NC(=O)[C@H](CC(C)C)NC(=O)NC(C)(C)C` (stereo partly drawn) [Example 65, (2S)-2-(3-tert-butylureido)-N-(4-(ethylamino)-3,4-dioxo-1-phenylbutan-2-yl)-4-methylpentanamide] is 15 to 30%; for `CC(C)C[C@H](NC(=O)c1ccc(C(F)(F)F)nc1)C(=O)NC(Cc1ccccc1)C(=O)C(=O)NC(C)(C)C` (stereo partly drawn) [Example 32, N-((2S)-1-(4-(tert-butylamino)-3,4-dioxo-1-phenylbutan-2-ylamino)-4-methyl-1-oxopentan-2-yl)-6-(trifluoromethyl)nicotinamide] it is 30 to 80%. Same read-out and setting: the figure for `CC(C)C[C@H](NC(=O)c1ccccc1)C(=O)NC(Cc1ccccc1)C(=O)C(=O)NC1CC1` (stereo partly drawn) [Example 20, N-((2S)-1-((4-(cyclopropylamino)-3,4-dioxo-1-phenylbutan-2-yl)amino)-4-methyl-1-oxopentan-2-yl)benzamide] is 30 to 80%. As for `CC(C)C[C@H](NC(=O)c1ccccc1)C(=O)NC(Cc1ccccc1)C(=O)C(=O)NCc1ccccc1` (stereo partly drawn) [Example 59, N-[(1S)-1-(1-benzyl-2-benzylcarbamoyl-2-oxo-ethylcarbamoyl)-3-methyl-butyl]-benzamide], the inhibition at 25 µM was in the range of 30 to 80%. As to `COc1cccc(C(=O)N[C@@H](CC(C)C)C(=O)NC(Cc2ccccc2)C(=O)C(=O)NC(C)(C)C)c1` (stereo partly drawn) [Example 7, N-((2S)-1-((4-(tert-butylamino)-3,4-dioxo-1-phenylbutan-2-yl)amino)-4-methyl-1-oxopentan-2-yl)-3-methoxybenzamide], the inhibition at 25 µM lay in the range of 15 to 30%. On the same count and under the same terms, the figure for `CONC(=O)C(=O)C(Cc1ccccc1)NC(=O)[C@H](CC(C)C)NC(=O)c1ccc2c(c1)OCO2` (stereo partly drawn) [Example 62, Benzo[1,3]dioxole-5-carboxylic acid [(1S)-1-(1-benzyl-2-methoxycarbamoyl-2-oxo-ethylcarbamoyl)-3-methyl-butyl]-amide] is 30 to 80%.

Turning to `CC(C)C[C@H](NC(=O)c1cncnc1)C(=O)NC(Cc1ccccc1)C(=O)C(=O)NC(C)(C)C` (stereo partly drawn) [Example 8, N-((2S)-1-((4-(tert-butylamino)-3,4-dioxo-1-phenylbutan-2-yl)amino)-4-methyl-1-oxopentan-2-yl)pyrimidine-5-carboxamide], the inhibition at 25 µM lay in the range of 1 to 15%.

As for `CC(C)C[C@H](NC(=O)c1cnccc1Cl)C(=O)NC(Cc1ccccc1)C(=O)C(=O)NC(C)(C)C` (stereo partly drawn) [Example 60, N-[(1S)-1-(1-benzyl-2-tert-butylcarbamoyl-2-oxo-ethylcarbamoyl)-3-methyl-butyl]-4-chloro-nicotinamide], the inhibition at 25 µM was in the range of 30 to 80%. Still for that read-out and setting: the figure for `CC(C)C[C@H](NC(=O)c1cncc(F)c1)C(=O)NC(Cc1ccccc1)C(=O)C(=O)NC(C)(C)C` (stereo partly drawn) [Example 31, N-((2S)-1-(4-(tert-butylamino)-3,4-dioxo-1-phenylbutan-2-ylamino)-4-methyl-1-oxopentan-2-yl)-5-fluoronicotinamide] is 1 to 15%; for `CCNC(=O)C(=O)C(Cc1ccccc1)NC(=O)[C@H](CC(C)C)NC(=O)c1cncnc1` (stereo partly drawn) [Example 6, N-((2S)-1-((4-(ethylamino)-3,4-dioxo-1-phenylbutan-2-yl)amino)-4-methyl-1-oxopentan-2-yl)pyrimidine-5-carboxamide] it is 15 to 30%. Consider `Cc1ccccc1C(=O)N[C@@H](CC(C)C)C(=O)NC(Cc1ccccc1)C(=O)C(=O)NC(C)(C)C` (stereo partly drawn) [Example 56, N-[(1S)-1-(1-benzyl-2-tert-butylcarbamoyl-2-oxo-ethylcarbamoyl)-3-methyl-butyl]-2-methyl-benzamide], for which the inhibition at 25 µM lay in the range of 15 to 30%. Still for that read-out and setting: to `CC(C)C[C@H](NC(=O)c1cccc2cnccc12)C(=O)NC(Cc1ccccc1)C(=O)C(=O)NC(C)(C)C` (stereo partly drawn) [Example 11, N-((2S)-1-((4-(tert-butylamino)-3,4-dioxo-1-phenylbutan-2-yl)amino)-4-methyl-1-oxopentan-2-yl)isoquinoline-5-carboxamide] belongs 30 to 80%.
